Data reported in patent US11773078B2, “Furin inhibitors” (Glaxosmithkline Intellectual Property Development Limited, priority 2018, dated 2023).
Counter-ions that a name gives are not always drawn.

Experiments:
[1] = target: T1, Furin (108-574-Tev-Flag-His) enzyme (Homo sapiens, UniProt P09958); experiment: Furin enzyme assay; assay type: biochemical; details: for IC50: read-out: furin enzyme pIC50 (converted)
T1 construct: Furin (108-574-Tev-Flag-His) enzyme was expressed and purified from CHO cells; TEV cleavage site (C); FLAG (C); His (C); made in house; host or cells: CHO cells
How it was run: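 CHO-expressed, purified furin construct at 40 pM in 100 mM HEPES pH7.5, 1 mM CaCl2, 0.005% Triton X-100. Eleven-point 1:3 series, 0.00017–10 μM final, incubated 2 h at room temperature and read on Envision. pXC50 from four-parameter fit.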

[2] = target: T2, furin (endogenous protease) in U20S cells (Homo sapiens, UniProt P09958); experiment: Furin cell-based assay (image-based, Golgi-targeted GFP with BMP10 furin/PCSK cleavage site); details: 24-hour incubation, read-out: furin golgi cell pXC50 (converted);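 further: Read-out is mean GFP fluorescence of Golgi puncta per cell by high-content imaging, retained when furin inhibited, over an eleven-point 0.00017–10 µM series, four-parameter fit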
T2 construct: the endogenous protease cleaves GFP; endogenous in cells; host or cells: U2OS cells transduced with a BacMam reporter
T2 sequence (P09958 108-794): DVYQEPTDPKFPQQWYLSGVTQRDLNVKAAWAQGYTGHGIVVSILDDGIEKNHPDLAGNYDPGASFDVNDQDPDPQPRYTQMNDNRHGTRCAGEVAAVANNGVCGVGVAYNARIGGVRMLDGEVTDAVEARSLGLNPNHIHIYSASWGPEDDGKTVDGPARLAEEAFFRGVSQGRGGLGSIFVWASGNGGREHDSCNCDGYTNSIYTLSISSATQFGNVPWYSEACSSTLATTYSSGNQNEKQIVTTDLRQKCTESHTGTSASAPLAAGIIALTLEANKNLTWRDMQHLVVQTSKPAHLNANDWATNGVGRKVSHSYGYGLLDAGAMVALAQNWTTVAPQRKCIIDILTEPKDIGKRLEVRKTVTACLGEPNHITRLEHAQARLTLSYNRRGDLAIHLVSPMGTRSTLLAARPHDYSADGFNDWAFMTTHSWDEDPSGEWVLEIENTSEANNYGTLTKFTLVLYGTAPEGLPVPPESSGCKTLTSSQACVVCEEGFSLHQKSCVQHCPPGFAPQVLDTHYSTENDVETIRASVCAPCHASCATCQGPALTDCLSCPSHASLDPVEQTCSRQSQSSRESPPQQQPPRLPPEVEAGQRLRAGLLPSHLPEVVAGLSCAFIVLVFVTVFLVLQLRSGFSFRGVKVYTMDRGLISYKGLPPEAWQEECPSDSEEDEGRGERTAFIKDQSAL

T1 sequence (P09958 108-574): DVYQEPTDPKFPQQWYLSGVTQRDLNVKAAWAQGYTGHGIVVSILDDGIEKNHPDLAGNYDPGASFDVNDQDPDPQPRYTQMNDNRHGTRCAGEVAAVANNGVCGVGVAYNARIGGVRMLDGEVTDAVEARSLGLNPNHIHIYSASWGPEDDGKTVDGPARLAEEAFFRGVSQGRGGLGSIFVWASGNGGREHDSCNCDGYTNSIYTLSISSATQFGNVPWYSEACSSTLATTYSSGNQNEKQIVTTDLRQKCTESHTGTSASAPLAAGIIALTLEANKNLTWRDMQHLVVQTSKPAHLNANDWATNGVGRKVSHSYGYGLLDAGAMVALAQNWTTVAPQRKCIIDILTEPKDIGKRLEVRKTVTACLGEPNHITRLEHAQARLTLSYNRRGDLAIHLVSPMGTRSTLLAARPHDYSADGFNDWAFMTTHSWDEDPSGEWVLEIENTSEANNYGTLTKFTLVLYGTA

## NCCNc1ccc(Oc2cc(CN3CCOCC3)cc(-c3cc(Cl)cc(Cl)c3)c2)cn1 [Example 99, N^1-(5-((3′,5′-Dichloro-5-(morpholinomethyl))-[1,1′-biphenyl]-3-yl)oxy)pyridin-2-yl)ethane-1,2-diamine, 3 hydrochloride]
[1]
  furin enzyme pIC50: 7.2
[2]
  EC50: 251 nM

## CNCc1cc(Oc2ccc(N3CCC(N)CC3)nc2)cc(-c2cc(Cl)cc(Cl)c2)c1 [Example 100, 1-(5-((3′,5′-Dichloro-5-((methylamino)methyl)-[1,1′-biphenyl]-3-yl)oxy)pyridin-2-yl)piperidin-4-amine, 3 hydrochloride]
[1]
  furin enzyme pIC50: 8.8
[2]
  EC50: 79.4 nM

## CNCc1cc(Oc2ccc(NCCCN)nc2)cc(-c2cc(Cl)cc(Cl)c2)c1 [Example 101, N^1-(5-((3′,5′-Dichloro-5-((methylamino)methyl)-[1,1′-biphenyl]-3-yl)oxy)pyridin-2-yl)propane-1,3-diamine]
[1]
  furin enzyme pIC50: 8.6
[2]
  EC50: 3160 nM

## CNCc1cc(Oc2ccc(N3CCNC(C)(C)C3)nc2)cc(-c2cc(Cl)cc(Cl)c2)c1 [Example 102, 1-(3′,5′-Dichloro-5-((6-(3,3-dimethylpiperazin-1-yl)pyridin-3-yl)oxy)-[1,1′-biphenyl]-3-yl)-N-methylmethanamine, 3 hydrochloride]
[1]
  furin enzyme pIC50: 9.2
[2]
  EC50: 15.8 nM

## CNCc1cc(Oc2ccc(N3CCCNCC3)nc2)cc(-c2cc(Cl)cc(Cl)c2)c1 [Example 103]
[1]
  furin enzyme pIC50: 8.9
[2]
  EC50: 63.1 nM

## CNCc1cc(Oc2ccc(N3CCN(C)CC3)nc2)cc(-c2cc(Cl)cc(Cl)c2)c1 [Example 104, 1-(3′,5′-dichloro-5-((6-(4-methylpiperazin-1-yl)pyridin-3-yl)oxy)-[1,1′-biphenyl]-3-yl)-N-methylmethanamine]
[1]
  furin enzyme pIC50: 8.5
[2]
  EC50: 25.1 nM

## CC(=O)NCC1CCN(Cc2cc(Oc3ccc(NCC(C)(C)N)nc3)cc(-c3cc(Cl)cc(Cl)c3)c2)CC1 [Example 105, N-((1-((5-((6-((2-Amino-2-methylpropyl)amino)pyridin-3-yl)oxy)-3′,5′-dichloro-[1,1′-biphenyl]-3-yl)methyl)piperidin-4-yl)methyl)acetamide, 3 hydrochloride]
[1]
  furin enzyme pIC50: 9
[2]
  EC50: 126 nM

## CC(=O)NCC1CCN(Cc2cc(Oc3ccc(N4CC[C@@H](N)[C@@H](F)C4)nc3)cc(-c3cc(Cl)cc(Cl)c3)c2)CC1 [Example 106, N-((1-((5-((6-((r/3)-4-Amino-3-fluoropiperidin-1-yl)pyridin-3-yl)oxy)-3′,5′-dichloro-[1,1′-biphenyl]-3-yl)methyl)piperidin-4-yl)methyl)acetamide, 3 hydrochloride]
[1]
  furin enzyme pIC50: 9.4
[2]
  EC50: 3.16 nM

## CC(=O)NCC1CCN(Cc2cc(Oc3ccc(N4CCN5C(=O)NCC5C4)nc3)cc(-c3cc(Cl)cc(Cl)c3)c2)CC1 (stereo not drawn) [Example 107, N-((1-((3′,5′-Dichloro-5-((6-(3-oxohexahydroimidazo[1,5-a]pyrazin-7(1H)-yl)pyridin-3-yl)oxy)-[1,1′-biphenyl]-3-yl)methyl)piperidin-4-yl)methyl)acetamide, 2 hydrochloride]
[1]
  furin enzyme pIC50: 9
[2]
  EC50: 5.01 nM

## CNCc1cc(Oc2ccc(N3CCC(N)CC3)nc2)nc(-c2cc(C)cc(Cl)c2)c1 [Example 108, 1-(5-((6-(3-Chloro-5-methylphenyl)-4-((methylamino)methyl)pyridin-2-yl)oxy)pyridin-2-yl)piperidin-4-amine, 4 hydrochloride]
[1]
  furin enzyme pIC50: 7.5
[2]
  EC50: > 50100 nM

## CC(=O)NCC1CCN(Cc2cc(Oc3cnc(N4CCNCC4)cn3)nc(-c3cc(Cl)cc(Cl)c3)c2)CC1 [Example 109, N-((1-((2-(3,5-Dichlorophenyl)-6-((5-(piperazin-1-yl)pyrazin-2-yl)oxy)pyridin-4-yl)methyl)piperidin-4-yl)methyl)acetamide]
[1]
  furin enzyme pIC50: 9.6
[2]
  EC50: 15.8 nM

## CC(=O)NCC1CCN(Cc2cc(Oc3cnc(N4CCN(C)CC4)cn3)nc(-c3cc(Cl)cc(Cl)c3)c2)CC1 [Example 110, N-((1-((2-(3,5-Dichlorophenyl)-6-((5-(4-methylpiperazin-1-yl)pyrazin-2-yl)oxy)pyridin-4-yl)methyl)piperidin-4-yl)methyl)acetamide]
[1]
  furin enzyme pIC50: 10.3
[2]
  EC50: 2.51 nM

## CC(=O)NCC1CCN(Cc2cc(Oc3cnc(N4CCN(CCC(=O)O)CC4)cn3)nc(-c3cc(Cl)cc(Cl)c3)c2)CC1 [Example 111, 3-(4-(5-((4-((4-(Acetamidomethyl)piperidin-1-yl)methyl)-6-(3,5-dichlorophenyl)pyridin-2-yl)oxy)pyrazin-2-yl)piperazin-1-yl)propanoic acid]
[1]
  furin enzyme pIC50: 9.7
[2]
  EC50: 158 nM

## O=C(O)CC1CCN(Cc2cc(Oc3cnc(N4CCNCC4)cn3)nc(-c3cc(Cl)cc(Cl)c3)c2)CC1 [Example 112, 2-(1-((2-(3,5-Dichlorophenyl)-6-((5-(piperazin-1-yl)pyrazin-2-yl)oxy)pyridin-4-yl)methyl)piperidin-4-yl)acetic acid]
[1]
  furin enzyme pIC50: 8.9
[2]
  EC50: 126 nM

## CC(=O)NCC1CCN(Cc2cc(Oc3cnc(N4CCN(CCCO)CC4)nc3)cc(-c3cc(Cl)cc(Cl)c3)c2)CC1 [Example 113, N-((1-((3′,5′-Dichloro-5-((2-(4-(3-hydroxypropyl)piperazin-1-yl)pyrimidin-5-yl)oxy)-[1,1′-biphenyl]-3-yl)methyl)piperidin-4-yl)methyl)acetamide]
[1]
  IC50: < 0.158 nM
[2]
  EC50: 12.6 nM

## O=C(O)CCC1CCN(Cc2cc(Oc3cnc(N4CCN(CCO)CC4)nc3)cc(-c3cc(Cl)cc(Cl)c3)c2)CC1 [Example 114, 3-(1-((3′,5′-Dichloro-5-((2-(4-(2-hydroxyethyl)piperazin-1-yl)pyrimidin-5-yl)oxy)-[1,1′-biphenyl]-3-yl)methyl)piperidin-4-yl)propanoic acid]
[1]
  IC50: < 0.158 nM
[2]
  EC50: 20 nM

## CC(=O)NCC1CCN(Cc2cc(Oc3ccc(N4CCN(CCC(=O)O)CC4)nc3)nc(-c3cc(F)cc(Cl)c3)c2)CC1 [Example 115, 3-(4-(5-((4-((4-(Acetamidomethyl)piperidin-1-yl)methyl)-6-(3-chloro-5-fluorophenyl)pyridin-2-yl)oxy)pyridin-2-yl)piperazin-1-yl)propanoic acid]
[1]
  furin enzyme pIC50: 8.3
[2]
  EC50: 251 nM

## CC(=O)NCC1CCN(Cc2cc(Oc3ccc(N4CCN(CCC(=O)O)CC4)nc3)nc(-c3cc(F)cc(Br)c3)c2)CC1 [Example 116, 3-(4-(5-((4-((4-(Acetamidomethyl)piperidin-1-yl)methyl)-6-(3-bromo-5-fluorophenyl)pyridin-2-yl)oxy)pyridin-2-yl)piperazin-1-yl)propanoic acid]
[1]
  furin enzyme pIC50: 10.4
[2]
  EC50: 200 nM

## CN1CCN(c2ncc(Oc3cc(CN4CCC(CC(=O)O)CC4)cc(-c4cc(Cl)cc(Cl)c4)c3)cn2)CC1 [Example 117, 2-(1-((3′,5′-Dichloro-5-((2-(4-methylpiperazin-1-yl)pyrimidin-5-yl)oxy)-[1,1′-biphenyl]-3-yl)methyl)piperidin-4-yl)acetic acid]
[1]
  furin enzyme pIC50: 9.2
[2]
  EC50: 31.6 nM

## CC(=O)NCC1CCN(Cc2cc(Oc3cnc(N4CCCNCC4)nc3)nc(-c3cc(Cl)cc(Cl)c3)c2)CC1 [Example 118, N-((1-((2-((2-(1,4-Diazepan-1-yl)pyrimidin-5-yl)oxy)-6-(3,5-dichlorophenyl)pyridin-4-yl)methyl)piperidin-4-yl)methyl)acetamide]
[1]
  furin enzyme pIC50: 8.7
[2]
  EC50: 15.8 nM

## CC(=O)NCC1CCN(Cc2cc(Oc3cnc(N4CCC(N)CC4)nc3)nc(-c3cc(Cl)cc(Cl)c3)c2)CC1 [Example 119, N-((1-((2-((2-(4-aminopiperidin-1-yl)pyrimidin-5-yl)oxy)-6-(3,5-dichlorophenyl)pyridin-4-yl)methyl)piperidin-4-yl)methyl)acetamide]
[1]
  furin enzyme pIC50: 9.3
[2]
  EC50: 25.1 nM

## C[N+](C)([O-])CCC1CCN(Cc2cc(Oc3ccc(N4CCNCC4)nc3)nc(-c3cc(Cl)cc(Cl)c3)c2)CC1 [Example 120, 2-(1-((2-(3,5-dichlorophenyl)-6-((6-(piperazin-1-yl)pyridin-3-yl)oxy)pyridin-4-yl)methyl)piperidin-4-yl)-N,N-dimethylethanamine oxide]
[1]
  IC50: 2 nM
[2]
  EC50: 15.8 nM

## CC(=O)NCC1CCN(Cc2cc(Oc3cnc(N4CCNCC4)c(F)c3)nc(-c3cc(Cl)cc(Cl)c3)c2)CC1 [Example 121, N-((1-((2-(3,5-dichlorophenyl)-6-((5-fluoro-6-(piperazin-1-yl)pyridin-3-yl)oxy)pyridin-4-yl)methyl)piperidin-4-yl)methyl)acetamide]
[1]
  furin enzyme pIC50: 8.6
[2]
  EC50: 31.6 nM

## O=C(O)COC1CCN(Cc2cc(Oc3cnc(N4CCNCC4)nc3)nc(-c3cc(Cl)cc(Cl)c3)c2)CC1 [Example 122]
[1]
  furin enzyme pIC50: 8.5
[2]
  EC50: 79.4 nM

## O=C(O)CC1CCN(Cc2cc(Oc3cnc(N4CCNCC(O)C4)nc3)nc(-c3cc(Cl)cc(Cl)c3)c2)CC1 (stereo not drawn) [Example 123, 2-(1-((2-(3,5-dichlorophenyl)-6-((2-(6-hydroxy-1,4-diazepan-1-yl)pyrimidin-5-yl)oxy)pyridin-4-yl)methyl)piperidin-4-yl)acetic acid]
[1]
  furin enzyme pIC50: 8.7
[2]
  EC50: 100 nM

## NC1(CCO)CCN(c2ncc(Oc3cc(CN4CCC(CC(=O)O)CC4)cc(-c4cc(Cl)cc(Cl)c4)n3)cn2)CC1 [Example 124, 2-(1-((2-((2-(4-amino-4-(2-hydroxyethyl)piperidin-1-yl)pyrimidin-5-yl)oxy)-6-(3,5-dichlorophenyl)pyridin-4-yl)methyl)piperidin-4-yl)acetic acid]
[1]
  furin enzyme pIC50: 8.8
[2]
  EC50: 20 nM

## CP(C)(=O)CC1CCN(Cc2cc(Oc3cnc(N4CCNCC4)nc3)nc(-c3cc(Cl)cc(Cl)c3)c2)CC1 [Example 125]
[1]
  furin enzyme pIC50: 8
[2]
  EC50: 50.1 nM
